Tested on: acetylated microtubule in HEK293T cells
Experiment: Microtubule-Stabilizing Activity Assay (acetylated microtubule immunoblot, HEK293T, colchicine challenge)
Type: cell-based
Conditions: 1 h pre-incubation, then colchicine 1 μM 3 h, relative to CNDR-51657 at 500 nM = 1.00; for Microtubule-Stabilizing Activity 50 nM: compound 50 nM; for Microtubule-Stabilizing Activity 500 nM: compound 500 nM
Experimental: Compound solvent: 100% dimethyl sulfoxide (DMSO). Cell line: HEK293T (ATCC, CRL3216). Culture conditions: Cells were cultured in Dulbecco's Modified Eagle's Medium (DMEM) containing 10% fetal bovine serum and 1% penicillin/streptomycin. Cells were cultured at 37° C. in a Thermo-Fisher incubator with a humidified atmosphere of 5% carbon dioxide.
One day prior to the experiment, 100,000 cells were seeded at a density of 200,000 cells/ml in a 24-well plate.
On the day of the experiment, 20 μl of PBS phosphate buffer containing the test compound at experimental concentrations or an equivalent volume of DMSO was added to each well. After incubating at 37° C. for 1 hour, colchicine was added to each well at a final concentration of 1 μM, followed by an additional 3-hour incubation at 37° C. The plate was then placed on ice. The medium in each well was removed, and the cells were washed with ice-cold PBS. After aspirating the PBS, 0.1 mL of ice-cold RIPA lysis buffer (containing 0.5% sodium deoxycholate, 0.1% SDS, 1% NP-40, 5 mM EDTA, pH 8.0) was quickly added. Prior to use, a commercial protease inhibitor cocktail (1:500) and 1 μM deacetylase inhibitor Trichostatin A (Sangon Biotech Co., Ltd.) were added to the cell lysis buffer. The cell lysate were transferred to a 1.5 ml centrifuge tube, sonicated, and centrifuged at 13,000 rpm for 10 minutes. The supernatant was collected, and protein concentration was determined using the BCA assay.
Based on existing literature (Black, 1989; Kurt, 2011), acetylated microtubule was used as an indicator of microtubule polymerization to assess the microtubule-stabilizing efficacy of the compounds. HEK293T cell lysates were analyzed by SDS-PAGE (7.5% gel) and immunoblotted using acetylated microtubule antibody (1:20,000, Sigma-Aldrich, T7451) and α-microtubule antibody (1:2,000, Proteintech, 11224-1-AP). After incubation with fluorescent dye-conjugated IgG (1:40,000, Licor), the blots were visualized using an Odyssey-Dlx imaging system. Grayscale analysis was performed using ImageJ.
The compound activity was quantified with the microtubule-stabilizing activity of CNDR-51657 (C5) (Jane, 2016) at 500 nM as 1.00.

CC(C)[C@@H](C)Nc1c(-c2c(F)cc(OCC3[C@H]4CN(C)C[C@@H]34)cc2F)c(Cl)nc2ncnn12 (stereo partly drawn) [Example 22, 5-Chloro-6-(2,6-difluoro-4-(((1R,5S,6r)-3-methyl-3-azabicyclo[3.1.0]hex-6-yl)methoxy)phenyl)-N—((R)-3-methylbutan-2-yl)-[1,2,4]triazolo[1,5-a]pyrimidin-7-amine]
Microtubule-Stabilizing Activity 50 nM: 1.88 | Microtubule-Stabilizing Activity 500 nM: 1.61

Cc1nc2ncnn2c(N[C@H](C)C(C)C)c1-c1c(F)cc(OCC2[C@H]3CNC[C@@H]23)cc1F (stereo partly drawn) [Example 23, 6-(4-(((1R,5S,6r)-3-Azabicyclo[3.1.0]hex-6-yl)methoxy)-2,6-difluorophenyl)-5-methyl-N—((R)-3-methylbutan-2-yl)-[1,2,4]triazolo[1,5-a]pyrimidin-7-amine]
Microtubule-Stabilizing Activity 50 nM: 0.80 | Microtubule-Stabilizing Activity 500 nM: 0.99

C[C@@H](Nc1c(-c2c(F)cc(OCC3[C@H]4CNC[C@@H]34)cc2F)c(Cl)nc2ncnn12)C1CCC1 (stereo partly drawn) [Example 26, 6-(4-(((1R,5S,6r)-3-Azabicyclo[3.1.0]hexan-6-yl)methoxy)-2,6-difluorophenyl)-5-chloro-N—((R)-1-cyclobutylethyl)-[1,2,4]triazolo[1,5-a]pyrimidin-7-amine]
Microtubule-Stabilizing Activity 50 nM: 1.35 | Microtubule-Stabilizing Activity 500 nM: 1.41

C[C@@H](Nc1c(-c2c(F)cc(OCC3[C@H]4CN(C)C[C@@H]34)cc2F)c(Cl)nc2ncnn12)C1CCC1 (stereo partly drawn) [Example 27, 5-Chloro-N—((R)-1-cyclobutylethyl)-6-(2,6-difluoro-4-(((1R,5S,6r)-3-methyl-3-azabicyclo[3.1.0]hexan-6-yl)methoxy)phenyl)-[1,2,4]triazolo[1,5-a]pyrimidin-7-amine]
Microtubule-Stabilizing Activity 50 nM: 1.64 | Microtubule-Stabilizing Activity 500 nM: 1.37

Cc1nc2ncnn2c(N[C@H](C)C2CCC2)c1-c1c(F)cc(OCC2[C@H]3CNC[C@@H]23)cc1F (stereo partly drawn) [Example 28, 6-(4-(((1R,5S,6r)-3-Azabicyclo[3.1.0]hexan-6-yl)methoxy)-2,6-difluorophenyl)-5-methyl-N—((R)-1-cyclobutylethyl)-[1,2,4]triazolo[1,5-a]pyrimidin-7-amine]
Microtubule-Stabilizing Activity 50 nM: 1.65 | Microtubule-Stabilizing Activity 500 nM: 1.43

CC(C)[C@@H](C)Nc1c(-c2c(F)cc(OC[C@@H]3[C@@H]4CNC[C@@H]43)cc2F)c(Cl)nc2ncnn12 [Example 29, 6-(4-(((1R,5S,6s)-3-Azabicyclo[3.1.0]hexan-6-yl)methoxy)-2,6-difluorophenyl)-5-chloro-N—((R)-3-methylbutan-2-yl)-[1,2,4]triazolo[1,5-a]pyrimidin-7-amine]
Microtubule-Stabilizing Activity 50 nM: 0.32 | Microtubule-Stabilizing Activity 500 nM: 1.69

CC(C)[C@@H](C)Nc1c(-c2c(F)cc(OC[C@H]3[C@H]4CN(C)C[C@@H]34)cc2F)c(Cl)nc2ncnn12 [Example 30, 5-Chloro-6-(2,6-difluoro-4-(((1R,5S,6s)-3-methyl-3-azabicyclo[3.1.0]hex-6-yl)methoxy)phenyl)-N—((R)-3-methylbutan-2-yl)-[1,2,4]triazolo[1,5-a]pyrimidin-7-amine]
Microtubule-Stabilizing Activity 50 nM: 0.09 | Microtubule-Stabilizing Activity 500 nM: 0.97

C[C@H](Nc1c(-c2c(F)cc(OC[C@@H]3[C@@H]4CNC[C@@H]43)cc2F)c(Cl)nc2ncnn12)C(F)(F)F [Example 31, 6-(4-(((1R,5S,6s)-3-Azabicyclo[3.1.0]hex-6-yl)methoxy)-2,6-difluorophenyl)-5-chloro-N—((S)-1,1,1-trifluoropropan-2-yl)-[1,2,4]triazolo[1,5-a]pyrimidin-7-amine]
Microtubule-Stabilizing Activity 50 nM: 0.35 | Microtubule-Stabilizing Activity 500 nM: 1.25

C[C@H](Nc1c(-c2c(F)cc(OC[C@H]3[C@H]4CN(C)C[C@@H]34)cc2F)c(Cl)nc2ncnn12)C(F)(F)F [Example 32, 5-Chloro-6-(2,6-difluoro-4-(((1R,5S,6s)-3-methyl-3-azabicyclo[3.1.0]hexan-6-yl)methoxy)phenyl)-N—((S)-1,1,1-trifluoropropan-2-yl)-[1,2,4]triazolo[1,5-a]pyrimidin-7-amine]
Microtubule-Stabilizing Activity 50 nM: 0.07 | Microtubule-Stabilizing Activity 500 nM: 2.51

Fc1cc(OC[C@H]2[C@@H]3CNC[C@@H]32)cc(F)c1-c1c(Cl)nc2ncnn2c1NCC(F)(F)F [Example 33, 6-(4-(((1R,5S,6r)-3-azabicyclo[3.1.0]hexan-6-yl)methoxy)-2,6-difluorophenyl)-5-chloro-N-(2,2,2-trifluoroethyl)-[1,2,4]triazolo[1,5-a]pyrimidin-7-amine]
Microtubule-Stabilizing Activity 50 nM: 1.46 | Microtubule-Stabilizing Activity 500 nM: 1.64

CN1C[C@@H]2[C@@H](COc3cc(F)c(-c4c(Cl)nc5ncnn5c4NCC(F)(F)F)c(F)c3)[C@@H]2C1 [Example 34, 5-Chloro-6-(2,6-difluoro-4-(((1R,5S,6r)-3-methyl-3-azabicyclo[3.1.0]hexan-6-yl)methoxy)phenyl)-N-(2,2,2-trifluoroethyl)-[1,2,4]triazolo[1,5-a]pyrimidin-7-amine]
Microtubule-Stabilizing Activity 50 nM: 1.05 | Microtubule-Stabilizing Activity 500 nM: 2.10

CC(C)[C@@H](C)Nc1c(-c2c(F)cc(O[C@H]3C[C@H]4CNC[C@H]4C3)cc2F)c(Cl)nc2ncnn12 [Example 36, 5-Chloro-6-(2,6-difluoro-4-(((3aR,5r,6aS)-octahydrocyclopenta[c]pyrrol-5-yl)oxy)phenyl)-N—((R)-3-methylbutan-2-yl)-[1,2,4]triazolo[1,5-a]pyrimidin-7-amine]
Microtubule-Stabilizing Activity 50 nM: 0.47 | Microtubule-Stabilizing Activity 500 nM: 0.37

CC(C)[C@@H](C)Nc1c(-c2c(F)cc(O[C@@H]3C[C@@H]4CN(C)C[C@@H]4C3)cc2F)c(Cl)nc2ncnn12 [Example 37, 5-Chloro-6-(2,6-difluoro-4-(((3aR,5r,6aS)-2-methyloctahydrocyclopenta[c]pyrrol-5-yl)oxy)phenyl)-N—((R)-3-methylbutan-2-yl)-[1,2,4]triazolo[1,5-a]pyrimidin-7-amine]
Microtubule-Stabilizing Activity 50 nM: 0.16 | Microtubule-Stabilizing Activity 500 nM: 0.17

C[C@H](Nc1c(-c2c(F)cc(O[C@H]3C[C@H]4CNC[C@H]4C3)cc2F)c(Cl)nc2ncnn12)C(F)(F)F [Example 38, 5-Chloro-6-(2,6-difluoro-4-(((3aR,5r,6aS)-octahydrocyclopenta[c]pyrrol-5-yl)oxy)phenyl)-N—((S)-1,1,1-trifluoropropan-2-yl)-[1,2,4]triazolo[1,5-a]pyrimidin-7-amine]
Microtubule-Stabilizing Activity 50 nM: 0.31 | Microtubule-Stabilizing Activity 500 nM: 0.95

C[C@H](Nc1c(-c2c(F)cc(O[C@@H]3C[C@@H]4CN(C)C[C@@H]4C3)cc2F)c(Cl)nc2ncnn12)C(F)(F)F [Example 39, 5-Chloro-6-(2,6-difluoro-4-(((3aR,5r,6aS)-2-methyloctahydrocyclopenta[c]pyrrol-5-yl)oxy)phenyl)-N—((S)-1,1,1-trifluoropropan-2-yl)-[1,2,4]triazolo[1,5-a]pyrimidin-7-amine]
Microtubule-Stabilizing Activity 50 nM: 0.29 | Microtubule-Stabilizing Activity 500 nM: 0.45

CC(C)[C@@H](C)Nc1c(-c2c(F)cc(O[C@@H]3C[C@H]4CNC[C@H]4C3)cc2F)c(Cl)nc2ncnn12 [Example 40]
Microtubule-Stabilizing Activity 50 nM: 0.17 | Microtubule-Stabilizing Activity 500 nM: 0.69

CC(C)[C@@H](C)Nc1c(-c2c(F)cc(O[C@H]3C[C@@H]4CN(C)C[C@@H]4C3)cc2F)c(Cl)nc2ncnn12 [Example 41, 5-Chloro-6-(2,6-difluoro-4-(((3aR,5s,6aS)-2-methyloctahydrocyclopenta[c]pyrrol-5-yl)oxy)phenyl)-N—((R)-3-methylbutan-2-yl)-[1,2,4]triazolo[1,5-a]pyrimidin-7-amine]
Microtubule-Stabilizing Activity 50 nM: 0.11 | Microtubule-Stabilizing Activity 500 nM: 1.93

C[C@H](Nc1c(-c2c(F)cc(O[C@@H]3C[C@H]4CNC[C@H]4C3)cc2F)c(Cl)nc2ncnn12)C(F)(F)F [Example 42, 5-Chloro-6-(2,6-difluoro-4-(((3aR,5s,6aS)-octahydrocyclopenta[c]pyrrol-5-yl)oxy)phenyl)-N—((S)-1,1,1-trifluoropropan-2-yl)-[1,2,4]triazolo[1,5-a]pyrimidin-7-amine]
Microtubule-Stabilizing Activity 50 nM: 0.25 | Microtubule-Stabilizing Activity 500 nM: 0.73

Source: patent publication US20260226064A1, “POLYCYCLIC COMPOUND FOR TREATING NEUROLOGICAL DISEASES AND TUMORS” (Shanghai Institute of Organic Chemistry, Chinese Academy of …, priority 2023, published 2026)
